Data reported in US10363257B2 (ZENITH EPIGENETICS LTD., priority 2013, dated 2019).
Where a name gives a salt, the structure may show the parent alone.

Legend:
[1] = tested on: human AML MV-4-11 cells; experiment: Inhibition of cell proliferation in MV4-11 cells (CellTiter Aqueous One); assay type: cell-based; conditions: for IC50: MV4-11, 72 h; for Cell Proliferation activity: 72 h
In short: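 IC50 values come from blank-corrected proliferation relative to DMSO controls, read as 490 nm absorbance 3–4 h after CellTiter Aqueous One addition. Before that, cells seeded at 5×10^4/well were exposed for 72 h (37° C, 5% CO2) to triplicate two-fold compound dilutions spanning 30–0.2 μM.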

[2] = tested on: hIL-6 mRNA; experiment: Inhibition of hIL-6 mRNA transcription in LPS-stimulated U937 cells; assay type: cell-based; conditions: Homo sapiens, U-937; PMA-differentiated U937 cells, 1 h pretreatment, 1 ug/mL LPS stimulation, 3 h; read-out: IL-6 activity (Inhibition of hIL-6 mRNA Transcription)
In short: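 U937 cells differentiated 3 days with 60 ng/mL PMA, pretreated 1 h with compound (0.1% DMSO), then stimulated with 1 ug/mL E. coli LPS for 3 h at 37 °C. hIL-6 mRNA measured by one-step TaqMan RT-qPCR, normalized to cyclophilin. Fold expression relative to control; triplicate wells.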

[3] = target: T1, Brd4 bromodomain 1 (BRD4(1)) (Homo sapiens, UniProt O60885); experiment: Inhibition of tetra-acetylated histone H4 binding to Brd4 bromodomain 1 (TR-FRET); conditions: tetra-acetylated histone H4 peptide, first bromodomain of Brd4
T1 construct: made in house; host or cells: E. coli BL21(DE3)
In short: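 Serially diluted compound (0.2% DMSO) incubated 2 h at room temperature with 200 nM N-His BRD4 bromodomain 1 and 25-50 nM biotinylated tetra-acetyl H4 peptide, detected via Eu-streptavidin/XL665 anti-His. Loss of 665 nm relative to 620 nm signal gave IC50 from dose-response.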

[4] = tested on: c-myc; experiment: Inhibition of c-myc expression (mRNA, real-time PCR) in MV4-11 cells; assay type: cell-based; conditions: Human AML MV4-11 cells, 3 h, cMYC mRNA
In short: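 One-step TaqMan qPCR of cMYC, normalized to an internal control with Cyclophilin probes run, gave fold expression versus DMSO (0.1%) control. Samples: triplicate MV4-11 wells exposed 3 h at 37° C to rising compound concentrations in IMDM with 10% FBS.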

Structure (SMILES) | IC50 [1] | IC50 [2] | IC50 [3] | IC50 [4] | Cell Proliferation activity [1]
Cc1noc(C)c1-c1cnc2c(c1)ncn2Cc1ccc(F)cc1 [Example Compound 44, 4-(3-(4-fluorobenzyl)-3H-imidazo[4,5-b]pyridin-6-yl)-3,5-dimethylisoxazole] | 3000 to 30000 nM | 300 to 3000 nM | 300 to 3000 nM | 3000 to 30000 nM | 
Cc1noc(C)c1-c1cnc2nc(C)n(Cc3cccnc3)c2c1 [compound 68, 3,5-dimethyl-4-(2-methyl-1-(pyridin-3-ylmethyl)-1H-imidazo[4,5-b]pyridin-6-yl)isoxazole] | 3000 to 30000 nM | 300 to 3000 nM | ≤ 300 nM | 300 to 3000 nM | 
Cc1noc(C)c1-c1cnc2cnn(Cc3ccccc3)c2c1 [compound 92, 4-(1-benzyl-1H-pyrazolo[4,3-b]pyridin-6-yl)-3,5-dimethylisoxazole] | 300 to 3000 nM | 300 to 3000 nM | ≤ 300 nM | 300 to 3000 nM | 
Cc1noc(C)c1-c1cc(N)c2[nH]c(=O)n(Cc3ccc(O)cc3)c2c1 [compound 129, 4-amino-6-(3,5-dimethylisoxazol-4-yl)-1-(4-hydroxybenzyl)-1H-benzo[d]imidazol-2(3H)-one] | 300 to 3000 nM | ≤ 300 nM | ≤ 300 nM | ≤ 300 nM | 
Cc1noc(C)c1-c1ccc2c(c1)N(Cc1ccccc1)CC(=O)N2 [compound 156, 4-benzyl-6-(3,5-dimethylisoxazol-4-yl)-3,4-dihydroquinoxalin-2(1H)-one] | 300 to 3000 nM | 300 to 3000 nM | ≤ 300 nM | 300 to 3000 nM | 
Cc1noc(C)c1-c1cc(N)c2nc(NCc3cccnc3)n(Cc3ccccc3)c2c1 [compound 157, 1-benzyl-6-(3,5-dimethylisoxazol-4-yl)-N2-(pyridin-3-ylmethyl)-1H-benzo[d]imidazole-2,4-diamine] | ≤ 300 nM | ≤ 300 nM | ≤ 300 nM | ≤ 300 nM | 
CCNc1nc2c([N+](=O)[O-])cc(-c3c(C)noc3C)cc2n1C(C)c1ccccc1 (stereo not shown) [compound 127, 6-(3,5-dimethylisoxazol-4-yl)-N-ethyl-4-nitro-1-(1-phenylethyl)-1H-benzo[d]imidazol-2-amine] | ≤ 300 nM | ≤ 300 nM | ≤ 300 nM | ≤ 300 nM | 
Cc1noc(C)c1-c1cnc2nc(C)n(C(C)c3ccccc3)c2c1 (stereo not shown) [compound 108, 3,5-dimethyl-4-(2-methyl-1-(1-phenylethyl)-1H-imidazo[4,5-b]pyridin-6-yl)isoxazole] | 300 to 3000 nM | ≤ 300 nM | ≤ 300 nM | 300 to 3000 nM | 
Cc1noc(C)c1-c1ccc2c(n1)[nH]c(=O)n2Cc1ccccc1 [Example Compound 3, 1-Benzyl-5-(3,5-dimethylisoxazol-4-yl)-1H-imidazo[4,5-b]pyridin-2(3H)-one] | 3000 to 30000 nM | 3000 to 30000 nM | 300 to 3000 nM | 3000 to 30000 nM | 
Cc1noc(C)c1-c1cc(N)c2nc(NCc3ccccc3)n(Cc3ccccc3)c2c1 [compound 152, N2,1-dibenzyl-6-(3,5-dimethylisoxazol-4-yl)-1H-benzo[d]imidazole-2,4-diamine] | 300 to 3000 nM | ≤ 300 nM | ≤ 300 nM | ≤ 300 nM | 
Cc1noc(C)c1-c1ccc2oc(=O)n(Cc3ccccc3)c2c1 [Example Compound 6, 3-Benzyl-5-(3,5-dimethylisoxazol-4-yl)benzo[d]oxazol-2(3H)-one] | 300 to 3000 nM | 300 to 3000 nM | 300 to 3000 nM | 300 to 3000 nM | 
Cc1noc(C)c1-c1cnc2nc(NC3CCCC3)n(Cc3ccccc3)c2c1 [compound 214, 1-benzyl-N-cyclopentyl-6-(3,5-dimethylisoxazol-4-yl)-1H-imidazo[4,5-b]pyridin-2-amine] | ≤ 300 nM | ≤ 300 nM | ≤ 300 nM | ≤ 300 nM | 
Cc1noc(C)c1-c1cc(CN)c2[nH]c(=O)n(Cc3ccccc3)c2c1 [Example Compound 22, 4-(aminomethyl)-1-benzyl-6-(3,5-dimethylisoxazol-4-yl)-1H-benzo[d]imidazol-2(3H)-one] | 300 to 3000 nM | 300 to 3000 nM | 300 to 3000 nM | 300 to 3000 nM | 
Cc1noc(C)c1-c1cc2c(ccn2Cc2ccccc2)nc1OC=O [Example Compound 37, 1-benzyl-6-(3,5-dimethylisoxazol-4-yl)-1H-pyrrolo[3,2-b]pyridin-5-yl formate] |  | 3000 to 30000 nM | 300 to 3000 nM | 3000 to 30000 nM | Not active
Cc1noc(C)c1Nc1cnc2nc(C)n(Cc3ccccc3)c2c1 [compound 155, N-(1-benzyl-2-methyl-1H-imidazo[4,5-b]pyridin-6-yl)-3,5-dimethylisoxazol-4-amine] |  | 300 to 3000 nM | ≤ 300 nM | 3000 to 30000 nM | Not active
Cc1noc(C)c1-c1cnc2nc(N3CCOCC3)n(Cc3ccccc3)c2c1 [compound 114, 4-(1-benzyl-6-(3,5-dimethylisoxazol-4-yl)-1H-imidazo[4,5-b]pyridin-2-yl)morpholine] | 300 to 3000 nM | 300 to 3000 nM | ≤ 300 nM | 300 to 3000 nM | 
Cc1noc(C)c1-c1cc2c(ncn2Cc2ccccc2)c(N)n1 [Example Compound 33, 1-benzyl-6-(3,5-dimethylisoxazol-4-yl)-1H-imidazo[4,5-c]pyridin-4-amine] | 3000 to 30000 nM | 300 to 3000 nM | ≤ 300 nM | 300 to 3000 nM | 
Cc1noc(C)c1-c1cc(N)c2nc(N3CCOCC3)n(Cc3ccccc3)c2c1 [compound 87, 1-benzyl-6-(3,5-dimethylisoxazol-4-yl)-2-morpholino-1H-benzo[d]imidazol-4-amine] | ≤ 300 nM | ≤ 300 nM | ≤ 300 nM | ≤ 300 nM | 
Cc1noc(C)c1-c1cnc2cnn(Cc3ccsc3)c2c1 [compound 98, 3,5-dimethyl-4-(1-(thiophen-3-ylmethyl)-1H-pyrazolo[4,3-b]pyridin-6-yl)isoxazole] | 300 to 3000 nM | 300 to 3000 nM | 300 to 3000 nM | 300 to 3000 nM | 
COc1ccc(Cn2c(=O)[nH]c3c([N+](=O)[O-])cc(-c4c(C)noc4C)cc32)cc1 [compound 103, 6-(3,5-dimethylisoxazol-4-yl)-1-(4-methoxybenzyl)-4-nitro-1H-benzo[d]imidazol-2(3H)-one] | 300 to 3000 nM | 300 to 3000 nM | ≤ 300 nM | 300 to 3000 nM | 
Cc1noc(C)c1-c1cc(N)c2oc(=O)n(Cc3ccccc3)c2c1 [compound 67, 7-amino-3-benzyl-5-(3,5-dimethylisoxazol-4-yl)benzo[d]oxazol-2(3H)-one] | 300 to 3000 nM | ≤ 300 nM | ≤ 300 nM | ≤ 300 nM | 
Cc1noc(C)c1-c1cc([N+](=O)[O-])c2nc(C)n(CC3CC3)c2c1 [Example Compound 14, 4-(1-(cyclopropylmethyl)-2-methyl-4-nitro-1H-benzo[d]imidazol-6-yl)-3,5-dimethylisoxazole] | 3000 to 30000 nM | 300 to 3000 nM | ≤ 300 nM | 300 to 3000 nM | 
Cc1noc(C)c1-c1cc(N)c2nc(N3CCN(C)CC3)n(Cc3ccccc3)c2c1 [compound 141, 1-benzyl-6-(3,5-dimethylisoxazol-4-yl)-2-(4-methylpiperazin-1-yl)-1H-benzo[d]imidazol-4-amine] | ≤ 300 nM | ≤ 300 nM | ≤ 300 nM | ≤ 300 nM | 
Cc1noc(C)c1-c1ccc2c(c1)N(Cc1ccccc1)C(=O)NC2 [Example Compound 12, 1-Benzyl-7-(3,5-dimethylisoxazol-4-yl)-3,4-dihydroquinazolin-2(1H)-one] | 300 to 3000 nM | 300 to 3000 nM | ≤ 300 nM | 300 to 3000 nM | 
Cc1noc(C)c1-c1cnc2nc(C)n(Cc3ccc(C#N)s3)c2c1 [compound 78, 5-((6-(3,5-dimethylisoxazol-4-yl)-2-methyl-1H-imidazo[4,5-b]pyridin-1-yl)methyl)thiophene-2-carbonitrile] | 3000 to 30000 nM | 300 to 3000 nM | ≤ 300 nM | 3000 to 30000 nM | 
Cc1noc(C)c1-c1cnc2nc(NCc3ccccc3)n(Cc3ccccc3)c2c1 [compound 153, N,1-dibenzyl-6-(3,5-dimethylisoxazol-4-yl)-1H-imidazo[4,5-b]pyridin-2-amine] | ≤ 300 nM | ≤ 300 nM | ≤ 300 nM | ≤ 300 nM | 
Cc1noc(C)c1-c1cc(N)c2ncn(Cc3ccc(F)cc3)c2c1 [Example Compound 27, 6-(3,5-dimethylisoxazol-4-yl)-1-(4-fluorobenzyl)-1H-benzo[d]imidazol-4-amine] | 300 to 3000 nM | 300 to 3000 nM | ≤ 300 nM | 300 to 3000 nM | 
Cc1noc(C)c1-c1cc([N+](=O)[O-])c2nc(C)n(CC3CCC3)c2c1 [compound 116, 4-(1-(cyclobutylmethyl)-2-methyl-4-nitro-1H-benzo[d]imidazol-6-yl)-3,5-dimethylisoxazole] | ≤ 300 nM | 300 to 3000 nM | ≤ 300 nM | ≤ 300 nM | 
